Source: US9156845B2, “4-(substituted amino)-7H-pyrrolo[2,3-d] pyrimidines as LRRK2 inhibitors” (Pfizer Inc., priority 2012, dated 2015)

How the values were obtained:
[1] = target: GST-tagged truncated LRRK2 (Homo sapiens (Human), UniProt Q5S007); test: LRRK2 Lantha Screen kinase assay; assay type: biochemical; conditions: geometric mean of 2-5 determinations unless otherwise indicated (a: >=6 determinations; b: single determination); read-out: LRRK2 WT IC50
mutant G2019S LRRK2 = mutant G2019S LRRK2 (Homo sapiens (Human), UniProt Q5S007, G2019S); test: LRRK2 Lantha Screen kinase assay, mutant enzyme; assay type: biochemical; conditions: geometric mean of 2-5 determinations unless otherwise indicated (a: >=6 determinations; b: single determination)
Sequence of mutant G2019S LRRK2 (Q5S007 970-2527 G2019S): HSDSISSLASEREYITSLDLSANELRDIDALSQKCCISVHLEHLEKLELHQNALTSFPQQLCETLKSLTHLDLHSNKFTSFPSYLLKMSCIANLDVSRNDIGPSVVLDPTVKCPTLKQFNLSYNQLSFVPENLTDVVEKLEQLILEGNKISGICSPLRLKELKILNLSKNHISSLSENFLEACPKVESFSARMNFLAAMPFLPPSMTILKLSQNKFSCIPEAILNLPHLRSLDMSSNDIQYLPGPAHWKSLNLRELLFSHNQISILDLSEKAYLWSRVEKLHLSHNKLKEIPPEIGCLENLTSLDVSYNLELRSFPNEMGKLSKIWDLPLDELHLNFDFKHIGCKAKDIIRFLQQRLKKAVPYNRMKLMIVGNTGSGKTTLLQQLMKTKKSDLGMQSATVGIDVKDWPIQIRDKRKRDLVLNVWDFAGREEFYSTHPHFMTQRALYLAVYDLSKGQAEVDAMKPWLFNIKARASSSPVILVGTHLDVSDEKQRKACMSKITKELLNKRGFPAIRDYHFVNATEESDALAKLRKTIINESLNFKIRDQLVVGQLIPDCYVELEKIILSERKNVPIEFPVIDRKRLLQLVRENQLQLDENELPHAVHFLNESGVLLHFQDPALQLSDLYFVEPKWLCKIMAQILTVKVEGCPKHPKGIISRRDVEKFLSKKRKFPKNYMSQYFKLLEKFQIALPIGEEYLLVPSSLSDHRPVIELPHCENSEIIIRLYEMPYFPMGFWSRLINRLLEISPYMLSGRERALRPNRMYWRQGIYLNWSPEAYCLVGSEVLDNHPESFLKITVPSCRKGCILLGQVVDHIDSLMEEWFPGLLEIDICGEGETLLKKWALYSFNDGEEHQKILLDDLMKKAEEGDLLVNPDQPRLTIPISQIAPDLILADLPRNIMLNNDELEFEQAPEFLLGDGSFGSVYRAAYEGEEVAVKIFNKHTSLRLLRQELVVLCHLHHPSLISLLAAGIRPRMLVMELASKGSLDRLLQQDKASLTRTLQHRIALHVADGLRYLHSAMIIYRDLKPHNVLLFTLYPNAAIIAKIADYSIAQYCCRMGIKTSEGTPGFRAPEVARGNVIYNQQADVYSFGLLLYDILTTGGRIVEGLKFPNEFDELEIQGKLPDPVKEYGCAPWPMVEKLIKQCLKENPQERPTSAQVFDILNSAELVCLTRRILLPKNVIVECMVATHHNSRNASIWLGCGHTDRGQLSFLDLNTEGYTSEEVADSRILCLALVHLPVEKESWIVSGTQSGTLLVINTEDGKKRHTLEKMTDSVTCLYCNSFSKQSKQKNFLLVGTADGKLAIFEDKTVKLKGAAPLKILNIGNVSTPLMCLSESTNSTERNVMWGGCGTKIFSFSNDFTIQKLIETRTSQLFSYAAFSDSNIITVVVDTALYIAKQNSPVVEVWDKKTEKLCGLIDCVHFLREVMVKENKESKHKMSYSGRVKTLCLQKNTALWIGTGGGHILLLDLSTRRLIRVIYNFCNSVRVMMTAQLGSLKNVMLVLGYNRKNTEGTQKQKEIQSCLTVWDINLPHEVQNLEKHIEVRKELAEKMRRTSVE

Sequence of GST-tagged truncated LRRK2 (Q5S007 970-2527): as the sequence (Q5S007 970-2527 G2019S) above, with S1050G counted along it

| IC50 [1] [nM] | IC50 (mutant G2019S LRRK2) [nM] | Structure (SMILES) |
| --- | --- | --- |
| 6 | 17 | CN(C)c1ncnc2[nH]cc(-c3cccc(C#N)c3F)c12 [Example 69, 3-[4-(dimethylamino)-7H-pyrrolo[2,3-d]pyrimidin-5-yl]-2-fluorobenzonitrile] |
| 45 | 110 | CN(C)CC1CN(c2ncnc3[nH]cc(-c4cccc(C#N)c4)c23)CCO1 (centres unmarked) [Example 143, 3-(4-{2-[(dimethylamino)methyl]morpholin-4-yl}-7H-pyrrolo[2,3-d]pyrimidin-5-yl)benzonitrile] |
| 67 | 66 | C[C@H]1CCCN(c2ncnc3[nH]cc(-c4ccc5[nH]ncc5c4)c23)C1 [Example 45, 5-(1H-indazol-5-yl)-4-[(3S)-3-methylpiperidin-1-yl]-7H-pyrrolo[2,3-d]pyrimidine] |
| 67 | 31 | C[C@@H]1CN(c2ncnc3[nH]cc(-c4cnn(C)c4)c23)CCO1 [Example 122, 4-[(2R)-2-methylmorpholin-4-yl]-5-(1-methyl-1H-pyrazol-4-yl)-7H-pyrrolo[2,3-d]pyrimidine] |
| 22 | 24 | COc1ccc(F)cc1-c1c[nH]c2ncnc(N3CCCC(F)C3)c12 (centres unmarked) [Example 181, 5-(5-fluoro-2-methoxyphenyl)-4-(3-fluoropiperidin-1-yl)-7H-pyrrolo[2,3-d]pyrimidine] |
| 127 | 1080 | N#Cc1cccc(-c2c(C(F)F)[nH]c3ncnc(N4CCOCC4)c23)c1 [Example 198, 3-[6-(Difluoromethyl)-4-(morpholin-4-yl)-7H-pyrrolo[2,3-d]pyrimidin-5-yl]benzonitrile] |
| 77 | 92 | CCn1cc(-c2c[nH]c3ncnc(N4CCOCC4)c23)cn1 [Example 148, 5-(1-ethyl-1H-pyrazol-4-yl)-4-(morpholin-4-yl)-7H-pyrrolo[2,3-d]pyrimidine] |
| 41 | 62 | Fc1ccc(-c2c[nH]c3ncnc(N4CCOCC4)c23)c(F)c1 [Example 90, 5-(2,4-difluorophenyl)-4-(morpholin-4-yl)-7H-pyrrolo[2,3-d]pyrimidine] |
| 9 | 12 | Fc1ccc(Cl)cc1-c1c[nH]c2ncnc(N3CCOCC3)c12 [Example 88, 5-(5-chloro-2-fluorophenyl)-4-(morpholin-4-yl)-7H-pyrrolo[2,3-d]pyrimidine] |
| 91 | 281 | N#Cc1cccc(-c2c[nH]c3ncnc(N4CCOC(c5cccc(O)c5)C4)c23)c1 (centres unmarked) [Example 134, 3-{4-[2-(3-hydroxyphenyl)morpholin-4-yl]-7H-pyrrolo[2,3-d]pyrimidin-5-yl}benzonitrile] |
| 22 | 19 | COc1ccc(Cl)cc1-c1c[nH]c2ncnc(N(C)C)c12 [Example 25, 5-(5-chloro-2-methoxyphenyl)-N,N-dimethyl-7H-pyrrolo[2,3-d]pyrimidin-4-amine] |
| 69 | 36 | N#Cc1cccc(-c2c[nH]c3ncnc(Nc4cn[nH]c4)c23)c1 [Example 144, 3-[4-(1H-pyrazol-4-ylamino)-7H-pyrrolo[2,3-d]pyrimidin-5-yl]benzonitrile] |
| 10 | 62 | C[C@H]1CN(c2ncnc3[nH]cc(-c4cccc(C#N)c4F)c23)CCO1 [Example 180, 2-fluoro-3-{4-[(2S)-2-methylmorpholin-4-yl]-7H-pyrrolo[2,3-d]pyrimidin-5-yl}benzonitrile] |
| 9 | 21 | Fc1cccc(-c2c[nH]c3ncnc(N4CCOCC4)c23)c1 [Example 91, 5-(3-fluorophenyl)-4-(morpholin-4-yl)-7H-pyrrolo[2,3-d]pyrimidine] |
| 27.2 | 186 | N#Cc1cccc(-c2c[nH]c3ncnc(N4CCO[C@H]5CCC[C@H]54)c23)c1 (relative stereo) [Example 208, rel-3-{4-[(4aR,7aS)-hexahydrocyclopenta[b][1,4]oxazin-4(4aH)-yl]-7H-pyrrolo[2,3-d]pyrimidin-5-yl}benzonitrile] |
| 9 | 14 | c1ccc(-c2c[nH]c3ncnc(N4CCOCC4)c23)cc1 [Example 93, 4-(morpholin-4-yl)-5-phenyl-7H-pyrrolo[2,3-d]pyrimidine] |
| 22 | 30 | Fc1ccccc1-c1c[nH]c2ncnc(N3CCOCC3)c12 [Example 84, 5-(2-fluorophenyl)-4-(morpholin-4-yl)-7H-pyrrolo[2,3-d]pyrimidine] |
| 42 | 230 | N#Cc1cccc(-c2c[nH]c3ncnc(N4CCC(c5ncc[nH]5)CC4)c23)c1 [Example 26, 3-{4-[4-(1H-imidazol-2-yl)piperidin-1-yl]-7H-pyrrolo[2,3-d]pyrimidin-5-yl}benzonitrile] |
| 91 | 92 | C[C@H]1CCCN(c2ncnc3[nH]cc(-c4ccccc4)c23)C1 [Example 15, 4-[(3S)-3-methylpiperidin-1-yl]-5-phenyl-7H-pyrrolo[2,3-d]pyrimidine] |
| 44 | 134 | N#Cc1cccc(-c2c[nH]c3ncnc(N4CCOC(Cc5noc(C(F)F)n5)C4)c23)c1 (centres unmarked) [Example 130, 3-[4-(2-{[5-(difluoromethyl)-1,2,4-oxadiazol-3-yl]methyl}morpholin-4-yl)-7H-pyrrolo[2,3-d]pyrimidin-5-yl]benzonitrile] |
| 37 | 190 | CN(C)c1ncnc2[nH]cc(-c3cc(C#N)ccc3F)c12 [Example 72, 3-[4-(dimethylamino)-7H-pyrrolo[2,3-d]pyrimidin-5-yl]-4-fluorobenzonitrile] |
| 85 | 75 | COc1ccc(F)cc1-c1c[nH]c2ncnc(N3CCC3)c12 [Example 168, 4-(azetidin-1-yl)-5-(5-fluoro-2-methoxyphenyl)-7H-pyrrolo[2,3-d]pyrimidine] |
| 53 | 50 | C[C@H]1CCCN(c2ncnc3[nH]cc(-c4cnc5cc[nH]c5c4)c23)C1 [Example 55, 4-[(3S)-3-methylpiperidin-1-yl]-5-(1H-pyrrolo[3,2-b]pyridin-6-yl)-7H-pyrrolo[2,3-d]pyrimidine] |
| 7.47 | 14.7 | Cn1cc(-c2c[nH]c3ncnc(N4CCOCC4)c23)nc1C#N [Example 220, 1-methyl-4-[4-(morpholin-4-yl)-7H-pyrrolo[2,3-d]pyrimidin-5-yl]-1H-imidazole-2-carbonitrile] |
| 32 | 75 | OCc1cccc(-c2c[nH]c3ncnc(N4CCOCC4)c23)c1F [Example 89, {2-fluoro-3-[4-(morpholin-4-yl)-7H-pyrrolo[2,3-d]pyrimidin-5-yl]phenyl}methanol] |
| 19 | 30 | COc1ccc(F)cc1-c1c[nH]c2ncnc(N3CCO[C@@H](C)C3)c12 [Example 179, 5-(5-fluoro-2-methoxyphenyl)-4-[(2S)-2-methylmorpholin-4-yl]-7H-pyrrolo[2,3-d]pyrimidine] |
| 54 | 248 | CN(C)C(=O)CCNc1ncnc2[nH]cc(-c3cccc(C#N)c3)c12 [Example 31, N^3-[5-(3-cyanophenyl)-7H-pyrrolo[2,3-d]pyrimidin-4-yl]-N,N-dimethyl-beta-alaninamide] |
| 42 | 106 | N#Cc1cccc(-c2c[nH]c3ncnc(N4CCC(F)(CO)CC4)c23)c1 [Example 133, 3-{4-[4-fluoro-4-(hydroxymethyl)piperidin-1-yl]-7H-pyrrolo[2,3-d]pyrimidin-5-yl}benzonitrile] |
